From ChEMBL document CHEMBL5120762, “Synthesis of 8-Fluoroneocryptolepine and Evaluation for Cytotoxic Activity against AGS Cancer Cells” (J Nat Prod, 2022)
The source made the active and inactive calls. The rule behind the calls is not given here.

What was measured:
[1] = test system: AGS; test: Induction of apoptosis in human AGS cells assessed as late apoptotic cells at 250 nM measured after 48 hrs by Annexin V-Alexa Fluor 488/propidium iodide staining based flow cytometry (reference value: 3.1%); format: functional
[2] = test system: AGS; test: Inhibition of PI3K in human AGS cells assessed as decrease in AKT phosphorylation at 50 nM measured after 48 hrs by Western blot analysis; format: cell-based
[3] = test system: AGS; test: Cell cycle arrest in human AGS cells assessed as accumulation at G2/M phase at 20 nM measured after 24 hrs by propidium iodide staining based flow cytometry (reference value: 16.56%); format: functional
[4] = test system: AGS; test: Induction of apoptosis in human AGS cells assessed as appearance of bright blue fluorescence at 250 nM measured after 48 hrs by Hoechst 33258 staining based fluorescence microscopy; format: functional, cell-based
[5] = Cytotoxicity against human GES1 cells assessed as reduction in cell viability measured after 48 hrs by MTT assay; format: toxicity, cell-based
[6] = test system: AGS; test: Induction of apoptosis in human AGS cells assessed as nuclear fragmentation at 250 nM measured after 48 hrs by Hoechst 33258 staining based fluorescence microscopy; format: functional, cell-based
[7] = test system: AGS; test: Down regulation of PI3KCA expression in human AGS cells at 50 nM measured after 48 hrs by Western blot analysis; format: functional, cell-based
[8] = test system: AGS; test: Induction of apoptosis in human AGS cells assessed as necrotic cells at 250 nM measured after 48 hrs by Annexin V-Alexa Fluor 488/propidium iodide staining based flow cytometry (reference value: 0.9%); format: functional
[9] = test system: AGS; test: Induction of apoptosis in human AGS cells assessed as early apoptotic cells at 50 nM measured after 48 hrs by Annexin V-Alexa Fluor 488/propidium iodide staining based flow cytometry (reference value: 0.4%); format: functional
[10] = test system: AGS; test: Up regulation of E-cadherin expression in human AGS cells at 50 nM measured after 48 hrs by Western blot analysis; format: functional, cell-based
[11] = test system: AGS; test: Induction of morphological changes in human AGS cells assessed as appearance of loosely arranged cells at 50 to 250 nM measured after 48 hrs; format: functional, cell-based; settings: dose 50-250 nM
[12] = test system: AGS; test: Cell cycle arrest in human AGS cells assessed as accumulation at S phase at 10 nM measured after 24 hrs by propidium iodide staining based flow cytometry (reference value: 43.66%); format: functional
[13] = test system: PANC-1; test: Cytotoxicity against human PANC-1 cells assessed as reduction in cell viability measured after 48 hrs by MTT assay; format: functional, cell-based; settings: PANC-1, 48 h
[14] = test system: AGS; test: Antimigratory activity against human AGS cells assessed as number of migrating cells at 10 to 20 nM measured after 48 hrs by crystal violet staining based transwell assay (reference value: 293); format: functional; settings: dose 10-20 nM
[15] = test system: AGS; test: Induction of cell cycle arrest in human AGS cells assessed as reduction in CDK1 gene expression at 50 nM measured after 48 hrs by RT-qPCR analysis; format: functional, cell-based
[16] = test system: AGS; test: Induction of apoptosis in human AGS cells assessed as up regulation of cleaved caspase-3 expression at 50 nM measured after 48 hrs by Western blot analysis; format: functional, cell-based
[17] = test system: AGS; test: Cell cycle arrest in human AGS cells assessed as accumulation at G2/M phase at 10 nM measured after 24 hrs by propidium iodide staining based flow cytometry (reference value: 16.56%); format: functional
[18] = test system: AGS; test: Induction of apoptosis in human AGS cells assessed as early apoptotic cells at 250 nM measured after 48 hrs by Annexin V-Alexa Fluor 488/propidium iodide staining based flow cytometry (reference value: 0.4%); format: functional
[19] = test system: AGS; test: Inhibition of PI3K in human AGS cells assessed as decrease in AKT expression at 50 nM measured after 48 hrs by Western blot analysis; format: cell-based
[20] = test system: AGS; test: Increase in MEK mRNA expression in human AGS cells at 50 nM measured after 48 hrs by RT-qPCR analysis; format: functional, cell-based
[21] = test system: AGS; test: Induction of apoptosis in human AGS cells assessed as appearance of apoptotic bodies at 250 nM measured after 48 hrs by Hoechst 33258 staining based fluorescence microscopy; format: functional, cell-based
[22] = test system: AGS; test: Antimigratory activity against human AGS cells measured after 48 hrs by crystal violet staining based transwell assay; format: functional, cell-based; settings: dose 10-20 nM, DDE = dose-dependent effect
[23] = test system: AGS; test: Reduction in beta-catenin mRNA expression in human AGS cells at 50 nM measured after 48 hrs by RT-qPCR analysis; format: functional, cell-based
[24] = test system: AGS; test: Induction of mitochondrial membrane potential loss in human AGS cells assessed as increase in green fluorescence at 10 to 250 nM measured after 48 hrs by JC-10 staining based fluorescence microscopy; format: functional, cell-based; settings: dose 10-250 nM
[25] = test system: AGS; test: Induction of cell cycle arrest in human AGS cells assessed as reduction in cyclinB1 gene expression at 50 nM measured after 48 hrs by RT-qPCR analysis; format: functional, cell-based
[26] = test system: AGS; test: Cell cycle arrest in human AGS cells assessed as accumulation at S phase at 20 nM measured after 24 hrs by propidium iodide staining based flow cytometry (reference value: 43.66%); format: functional
[27] = test system: AGS; test: Induction of apoptosis in human AGS cells assessed as necrotic cells at 10 nM measured after 48 hrs by Annexin V-Alexa Fluor 488/propidium iodide staining based flow cytometry (reference value: 0.9%); format: functional
[28] = test system: AGS; test: Cell cycle arrest in human AGS cells assessed as accumulation at G0/G1 phase at 10 nM measured after 24 hrs by propidium iodide staining based flow cytometry (reference value: 39.77%); format: functional
[29] = test system: AGS; test: Induction of apoptosis in human AGS cells assessed as viable cells at 250 nM measured after 48 hrs by Annexin V-Alexa Fluor 488/propidium iodide staining based flow cytometry (reference value: 95.6%); format: functional; settings: read-out: Activity
[30] = test system: AGS; test: Induction of cell cycle arrest in human AGS cells assessed as reduction in CDK1 expression at 50 nM measured after 48 hrs by Western blot analysis; format: functional, cell-based
[31] = test system: AGS; test: Cell cycle arrest in human AGS cells assessed as accumulation at G0/G1 phase at 20 nM measured after 24 hrs by propidium iodide staining based flow cytometry (reference value: 39.77%); format: functional
[32] = test system: AGS; test: Induction of morphological changes in human AGS cells assessed as cytoplasm concentration at 50 nM measured after 48 hrs; format: functional, cell-based
[33] = test system: AGS; test: Induction of apoptosis in human AGS cells assessed as early apoptotic cells at 10 nM measured after 48 hrs by Annexin V-Alexa Fluor 488/propidium iodide staining based flow cytometry (reference value: 0.4%); format: functional
[34] = test system: AGS; test: Induction of apoptosis in human AGS cells assessed as viable cells at 50 nM measured after 48 hrs by Annexin V-Alexa Fluor 488/propidium iodide staining based flow cytometry (reference value: 95.6%); format: functional; settings: read-out: Activity
[35] = test system: AGS; test: Cytotoxicity against human AGS cells assessed as reduction in cell viability at 10 to 250 nM by MTT assay; format: functional, cell-based; settings: dose 10-250 nM, time 24-72 hrs, TDE = time-dependent effect
[36] = test system: AGS; test: Induction of morphological changes in human AGS cells assessed as cell rounding at 50 to 250 nM measured after 48 hrs; format: functional, cell-based; settings: dose 50-250 nM
[37] = test system: AGS; test: Induction of apoptosis in human AGS cells assessed as late apoptotic cells at 10 nM measured after 48 hrs by Annexin V-Alexa Fluor 488/propidium iodide staining based flow cytometry (reference value: 3.1%); format: functional
[38] = test system: SMMC-7721; test: Cytotoxicity against human SMMC-7721 cells assessed as reduction in cell viability measured after 48 hrs by MTT assay; format: functional, cell-based; settings: SMMC-7721, 48 h
[39] = test system: HCT-116; test: Cytotoxicity against human HCT-116 cells assessed as reduction in cell viability measured after 48 hrs by MTT assay; format: functional, cell-based; settings: HCT-116, 48 h
[40] = test system: AGS; test: Induction of apoptosis in human AGS cells assessed as viable cells at 10 nM measured after 48 hrs by Annexin V-Alexa Fluor 488/propidium iodide staining based flow cytometry (reference value: 95.6%); format: functional; settings: read-out: Activity
[41] = test system: AGS; test: Induction of apoptosis in human AGS cells assessed as necrotic cells at 50 nM measured after 48 hrs by Annexin V-Alexa Fluor 488/propidium iodide staining based flow cytometry (reference value: 0.9%); format: functional
[42] = test system: AGS; test: Induction of apoptosis in human AGS cells assessed as late apoptotic cells at 50 nM measured after 48 hrs by Annexin V-Alexa Fluor 488/propidium iodide staining based flow cytometry (reference value: 3.1%); format: functional
[43] = test system: AGS; test: Induction of apoptosis in human AGS cells measured after 48 hrs by Annexin V-Alexa Fluor 488/propidium iodide staining based flow cytometry; format: functional, cell-based; settings: dose 10-250 nM, DDE = dose-dependent effect
[44] = test system: AGS; test: Increase in GSK-3beta mRNA expression in human AGS cells at 50 nM measured after 48 hrs by RT-qPCR analysis; format: functional, cell-based
[45] = test system: AGS; test: Inhibition of PI3K in human AGS cells assessed as decrease in AKT mRNA expression at 50 nM measured after 48 hrs by RT-qPCR analysis; format: cell-based
[46] = test system: AGS; test: Increase in PI3KCA mRNA expression in human AGS cells at 50 nM measured after 48 hrs by RT-qPCR analysis; format: functional, cell-based
[47] = test system: AGS; test: Induction of morphological changes in human AGS cells assessed as weak cell adhesion at 50 to 250 nM measured after 48 hrs; format: functional, cell-based; settings: dose 50-250 nM
[48] = test system: AGS; test: Induction of morphological changes in human AGS cells assessed as conversion pf nuclear pyknosis into dense matter at 50 nM measured after 48 hrs; format: functional, cell-based
[49] = test system: AGS; test: Induction of apoptosis in human AGS cells assessed as chromatin shrinkage at 250 nM measured after 48 hrs by Hoechst 33258 staining based fluorescence microscopy; format: functional, cell-based
[50] = test system: AGS; test: Cytotoxicity against human AGS cells assessed as reduction in cell viability measured after 48 hrs by MTT assay; format: functional, cell-based

Cn1c2nc3cc(F)ccc3c-2cc2ccccc21
Activity [1]: 37.1%
inhibition [2]: Active
Activity [3]: 24.97%
Activity [4]: Active
IC50 at 48 h [5]: 40 µM
Activity [6]: Active
Activity [7]: Active
Activity [8]: 30.9%
Activity [9]: 2.9%
Activity [10]: Active
Activity [11]: Active
Activity [12]: 42.57%
IC50 [13]: > 50 µM
Activity [14]: 66
Activity [15]: Active
Activity [16]: Active
Activity [17]: 21.61%
Activity [18]: 7.7%
inhibition [19]: Active
Activity [20]: Active
Activity [21]: Active
Activity [22]: Dde
Activity [23]: Active
Activity [24]: Active
Activity [25]: Active
Activity [26]: 45.6%
Activity [27]: 2.2%
Activity [28]: 35.82%
viability at 0.25 µM [29]: 24.3%
Activity [30]: Active
Activity [31]: 29.43%
Activity [32]: Active
Activity [33]: 1.8%
viability at 0.05 µM [34]: 69.8%
Activity [35]: Tde
Activity [36]: Active
Activity [37]: 7.3%
IC50 [38]: 52 µM
IC50 [39]: 18 µM
viability at 0.01 µM [40]: 88.6%
Activity [41]: 9.5%
Activity [42]: 17.9%
Activity [43]: Dde
Activity [44]: Active
inhibition [45]: Active
Activity [46]: Active
Activity [47]: Active
Activity [48]: Active
Activity [49]: Active
IC50 [50]: 0.043 µM
Activity ([50]; DDE = dose-dependent effect): Dde

O=c1[nH]cc(F)c(=O)[nH]1 [FLUOROURACIL]
IC50 at 48 h [5]: > 100 µM
IC50 [50]: 58 µM
